Results reported in patent publication US8835440B2, “Cyclic pyrimidin-4-carboxamides as CCR2 receptor antagonists for treatment of inflammation, asthma and COPD” (Boehringer Ingelheim International GmbH, priority 2008, dated 2014).

Target: T1, CCR2 (Homo sapiens, UniProt P41597)
T1 construct: Membranes were prepared from THP-1 cells; endogenous in cells; host or cells: THP-1 cells (membrane preparation)
T1 sequence (P41597 1-360 isoform P41597-2): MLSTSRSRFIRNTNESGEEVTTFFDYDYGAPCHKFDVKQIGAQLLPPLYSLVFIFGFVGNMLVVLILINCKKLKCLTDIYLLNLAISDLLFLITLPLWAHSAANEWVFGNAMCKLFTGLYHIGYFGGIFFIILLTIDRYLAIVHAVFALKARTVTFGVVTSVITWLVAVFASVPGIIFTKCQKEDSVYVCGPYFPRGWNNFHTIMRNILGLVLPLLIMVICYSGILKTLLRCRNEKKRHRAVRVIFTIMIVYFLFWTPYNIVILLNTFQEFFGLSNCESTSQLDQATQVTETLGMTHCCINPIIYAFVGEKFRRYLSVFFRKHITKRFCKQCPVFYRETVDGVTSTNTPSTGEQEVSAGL
Assay: CCR2 receptor membrane binding assay ([125I]MCP-1, THP-1 cell membranes, SPA beads)
Conditions: for remaining activity at 10 µM: @ 10 μM test compound, THP-1 membranes, read-out: CCR2 % ctrl @ 10 μM; for Ki: dissociation constant hKi, [125I]MCP-1 binding to THP-1 membranes
Procedure: The above exemplary substances have been tested for binding to CCR2 using a binding assay as outlined herein below:
THP-1 cells (human acute monocytic leukaemia cells) were cultured under standardized conditions at 37° C. and 5% CO2 in a humidified incubator. THP-1 cells were cultivated in RPMI 1640 medium (Gibco 21875) containing 1% MEM-NEAA (Gibso 11140) 2 mM L-glutamine, 1.5 g/L sodium bicarbonate, 4.5 g/L glucose, 10 mM HEPES and 1.0 mM sodium pyruvate, 90%; 10% fetal calf serum (FCS Gibco 10500-064).
Membranes were prepared from THP-1 cells. THP-1 cells were centrifuged at 300×g at 4° C. for 10 min. The cell pellet was resuspendet in Phosphate Buffer Saline (PBS, including 10 μM Pefabloc and a protease inhibitor mix ‘complete’, Boehringer Mannheim (1 tablet/50 ml)), to a concentration of […]. The membrane preparation was performed by disrupting the cells by nitrogen […] (at 50 bar, for 1 h) in a “Nitrogen Bombe” (Parr Instrument). Cell debris was removed by centrifugation (800×g at 4° C., 1 min). The supernatant was centrifuged at 80000×g, 4° C. for 30 min to sediment the cell membranes. Usually 50 mg of protein (Bradford assay) were yielded from 1×10E9 cells. The membranes were resuspendet in 25 mM HEPES, 25 mM MgCl2, 1 mM CaCl2, 10% Glycerine for storage in aliquots at −80° C. in 25 mM HEPES, 25 mM MgCl2, 1 mM CaCl2, 10% Glycerine and stored at −80° C.
Receptor Membrane Binding Assay:
Perkin Elmer NEX 332 Jod 125 MCP-1, Stock: 2200 Ci/mmol solved in 2000 μl assay buffer, stored at −20° C. THP-1 membrane were adjusted with 25 mM HEPES, pH 7.2; 5 mM MgCl2; 0.5 mM CaCl2; 0.2% BSA assay buffer to a concentration of […]. Amersham Biosciences PVT-WGA Beads (RPNQ0001) were adjusted with assay buffer to a concentration of 0.24 mg/30 μl. For preparation of the membrane-bead-suspension membranes and beads were incubated for 30 min at RT under rotation (60 rpm) with a ratio of 1:2. Test compounds dissolved in 100% DMSO to a concentration of 10 mM and are further diluted with 100% DMSO to 1 mM. All additional compound dilutions were obtained with assay buffer, final 1% DMSO. Compounds, membrane-bead-suspension and [125I]MCP-1 (ca. 25000 cpm/10 μl) were incubated. Bound radioactivity was determined by scintillation counter after 8 h. Determination of affinity of test compounds (dissociation constant hKi) is calculated by iterative fitting of experimental data using the “easy sys” program, which is based on law of mass action (Schittkowski K. (1994), Numerische Mathematik, Vol. 68, 129-142).

Row | remaining activity at 10 µM | Ki | SMILES
1 | 12% | 225 nM | Cc1c(NCC2Cc3ccccc3C2)ncnc1C(=O)N1CCC(N2CCOCC2)CC1 [Example 46]
2 | 14% | 222 nM | Cc1c(NCc2ccc(C(F)(F)F)c(Cl)c2)ncnc1C(=O)N1CCC(N2CCOCC2)CC1 [Example 47]
3 | 26% | 1780 nM | Cc1c(NCc2ccc(F)c(F)c2)ncnc1C(=O)N1CCC(N2CCOCC2)CC1 [Example 48]
4 | 7% | 97 nM | Cc1c(NCc2ccc(Cl)cc2)ncnc1C(=O)N1CCC(N2CCC(N(C)S(C)(=O)=O)CC2)CC1 [Example 49]
5 | 22% | 928 nM | Cc1c(NCC2COc3ccccc3C2)ncnc1C(=O)N1CCC(N2CCOCC2)CC1 (centres unmarked) [Example 50]
6 | 13% | 290 nM | Cc1c(NCC2CCN(c3ccccc3)C2)ncnc1C(=O)N1CCC(N2CCOCC2)CC1 (centres unmarked) [Example 51]
7 | 12% | 175 nM | Cc1c(NCc2ccc(C(C)(C)C)cc2)ncnc1C(=O)N1CCC(N2CCOCC2)CC1 [Example 52]
8 | 4% | 18 nM | Cc1c(NCCc2ccc(Cl)c(Cl)c2)ncnc1C(=O)N1CCC(N2CCC(N(C)S(C)(=O)=O)CC2)CC1 [Example 53]
9 | 13% | 356 nM | Cc1c(NCc2ccc(C(C)(C)C)nc2)ncnc1C(=O)N1CCC(N2CCC(N(C)S(C)(=O)=O)CC2)CC1 [Example 54]
10 | 17% | 200 nM | Cc1cc(CNc2ncnc(C(=O)N3CCC(N4CCC(N(C)S(C)(=O)=O)CC4)CC3)c2C)ccc1F [Example 55]
11 | 8% | 127 nM | CCc1ccc(CNc2ncnc(C(=O)N3CCC(N4CCC(N(C)S(C)(=O)=O)CC4)CC3)c2C)cc1 [Example 56]
12 | 10% | 93 nM | Cc1c(NCC2COc3ccccc3C2)ncnc1C(=O)N1CCC(N2CCC(N(C)S(C)(=O)=O)CC2)CC1 (centres unmarked) [Example 57]
13 | 12% | 336 nM | Cc1c(NCC2CCN(c3ccccc3)CC2)ncnc1C(=O)N1CCC(N2CCC(N(C)S(C)(=O)=O)CC2)CC1 [Example 58]
14 | 5% | 55 nM | Cc1ccc(CNc2ncnc(C(=O)N3CCC(N4CCC(N(C)S(C)(=O)=O)CC4)CC3)c2C)cc1Cl [Example 59]
15 | 5% | 44 nM | Cc1c(NCC2CCN(c3ccccc3)C2)ncnc1C(=O)N1CCC(N2CCC(N(C)S(C)(=O)=O)CC2)CC1 (centres unmarked) [Example 60]
16 | 2% | 46 nM | Cc1c(NCC2Cc3ccccc3C2)ncnc1C(=O)N1CCC(N2CCC(N(C)S(C)(=O)=O)CC2)CC1 [Example 61]
17 | 3% | 38 nM | Cc1c(NCc2ccc(C(F)(F)F)c(Cl)c2)ncnc1C(=O)N1CCC(N2CCC(N(C)S(C)(=O)=O)CC2)CC1 [Example 62]
18 | 7% | 54 nM | Cc1c(NCc2ccc(Cl)c(F)c2)ncnc1C(=O)N1CCC(N2CCC(N(C)S(C)(=O)=O)CC2)CC1 [Example 63]
19 | 8% | 65 nM | Cc1c(NCc2ccc(C(C)C)cc2)ncnc1C(=O)N1CCC(N2CCC(N(C)S(C)(=O)=O)CC2)CC1 [Example 64]
20 | 8% | 176 nM | Cc1ccc(CNc2ncnc(C(=O)N3CCC(N4CCC(N(C)S(C)(=O)=O)CC4)CC3)c2C)cc1F [Example 65]
21 | 8% | 138 nM | Cc1c(NCc2cccc(Cl)c2)ncnc1C(=O)N1CCC(N2CCC(N(C)S(C)(=O)=O)CC2)CC1 [Example 66]
22 | 27% | 1420 nM | COc1ccc(CNc2ncnc(C(=O)N3CCC(N4CCC(N(C)S(C)(=O)=O)CC4)CC3)c2C)cc1 [Example 67]

Row | remaining activity at 10 µM | Ki | SMILES
23 | 7% | 98 nM | Cc1c(NCc2ccc(F)c(Cl)c2)ncnc1C(=O)N1CCC(N2CCC(N(C)S(C)(=O)=O)CC2)CC1 [Example 68]
24 | 7% | 63 nM | Cc1c(NCc2ccc(C(C)(C)C)cc2)ncnc1C(=O)N1CCC(N2CCC(NS(C)(=O)=O)CC2)CC1 [Example 69]
25 | 6% | 80 nM | Cc1c(NCCc2ccc(OC(F)(F)F)cc2)ncnc1C(=O)N1CCC(N2CCC(NS(C)(=O)=O)CC2)CC1 [Example 70]
26 | 12% | 117 nM | Cc1c(NCC2COc3ccccc3C2)ncnc1C(=O)N1CCC(N2CCC(NS(C)(=O)=O)CC2)CC1 (centres unmarked) [Example 71]
27 | 7% | 81 nM | Cc1c(NCc2ccc(Cl)c(Cl)c2)ncnc1C(=O)N1CCC(N2CCC(NS(C)(=O)=O)CC2)CC1 [Example 72]
28 | 2% | 38 nM | Cc1c(NCC2Cc3ccccc3C2)ncnc1C(=O)N1CCC(N2CCC(NS(C)(=O)=O)CC2)CC1 [Example 73]
29 | 2% | 71 nM | Cc1c(NCC2CCN(c3ccccc3)C2)ncnc1C(=O)N1CCC(N2CCC(NS(C)(=O)=O)CC2)CC1 (centres unmarked) [Example 74]
30 | 7% | 67 nM | Cc1c(NCc2ccc(C(F)(F)F)c(Cl)c2)ncnc1C(=O)N1CCC(N2CCC(NS(C)(=O)=O)CC2)CC1 [Example 75]
31 | 12% | 132 nM | Cc1c(NCc2ccc(Cl)c(F)c2)ncnc1C(=O)N1CCC(N2CCC(NS(C)(=O)=O)CC2)CC1 [Example 76]
32 | 27% | 650 nM | CNC(=O)[C@@H]1CCN(C2CCN(C(=O)c3ncnc(NCc4ccc(C(F)(F)F)c(Cl)c4)c3C)CC2)C1 [Example 77]
33 | 28% | 740 nM | CNC(=O)[C@@H]1CCN(C2CCN(C(=O)c3ncnc(NCc4ccc(Cl)c(F)c4)c3C)CC2)C1 [Example 78]
34 | 10% | 89 nM | Cc1nc(NCC2COc3ccccc3C2)c(C)c(C(=O)N2CCC(N3CCC(N(C)S(C)(=O)=O)CC3)CC2)n1 (centres unmarked) [Example 79]
35 | 7% | 53 nM | Cc1nc(NCc2ccc(Cl)c(F)c2)c(C)c(C(=O)N2CCC(N3CCC(N(C)S(C)(=O)=O)CC3)CC2)n1 [Example 80]
36 | 8% | 52 nM | Cc1nc(NCc2ccc(C(F)(F)F)c(Cl)c2)c(C)c(C(=O)N2CCC(N3CCC(N(C)S(C)(=O)=O)CC3)CC2)n1 [Example 81]
37 | 4% | 43 nM | Cc1nc(NCc2ccc(Cl)c(Cl)c2)c(C)c(C(=O)N2CCC(N3CCC(N(C)S(C)(=O)=O)CC3)CC2)n1 [Example 82]
38 | 3% | 43 nM | Cc1nc(NCc2ccc(C(C)(C)C)cc2)c(C)c(C(=O)N2CCC(N3CCC(N(C)S(C)(=O)=O)CC3)CC2)n1 [Example 83]
39 | 4% | 69 nM | Cc1nc(NCC2CCN(c3ccccc3)C2)c(C)c(C(=O)N2CCC(N3CCC(N(C)S(C)(=O)=O)CC3)CC2)n1 (centres unmarked) [Example 84]
40 | 13% | 55 nM | Cc1nc(NC[C@@H]2CCN(c3ccccc3)C2)c(C)c(C(=O)N2CCC(N3CCC(N(C)S(C)(=O)=O)CC3)CC2)n1 [Example 85]
41 | 3% | 39 nM | Cc1nc(NCC2Cc3ccccc3C2)c(C)c(C(=O)N2CCC(N3CCC(N(C)S(C)(=O)=O)CC3)CC2)n1 [Example 86]
42 | 9% | 78 nM | Cc1nc(NCC2CCCN(c3ccccc3)C2)c(C)c(C(=O)N2CCC(N3CCC(N(C)S(C)(=O)=O)CC3)CC2)n1 (centres unmarked) [Example 87]
43 | 6% | 58 nM | Cc1nc(NCc2ccc(Cl)c(Cl)c2)c(C)c(C(=O)N2CCC(N3CCC(NS(C)(=O)=O)CC3)CC2)n1 [Example 88]
